This note sets out measurements from patent publication US20240174631A1, “COMPOUNDS, COMPOSITIONS, AND METHODS FOR MODULATING FGF ACTIVITY” (Recovery Therapeutics, Inc., priority 2021, published 2024).

One assay deals with T1, FGF2 (Homo sapiens, UniProt P09038).
T1 construct: made in house; host or cells: Escherichia coli BL21 (DE3) Star
Description: Thermal shift assay (TSA) of FGFR1/FGF2 complex, FGF2 melting peak. The format is binding. The source says: TSA was utilized to biophysically characterize the recombinant human FGFR1/FGF2 complex in the presence or absence of compounds. The assay functions by protein denaturation over a temperature gradient. During protein unfolding, exposed hydrophobic regions bind a dye and fluoresce due to solvent relaxation effects. Changes in the melting temperature of the protein complex in the presence of each compound were monitored and compounds were screened/ranked using this method.
One Shot BL21 (DE3) Star Escherichia coli competent cells (Thermo Fisher) were transformed with a relevant FGF2 plasmid and inoculated onto Ampicillin Luria Broth/Agar plates. Two hundred milliliter portions of Terrific Broth starter cultures were used to inoculate 9 L cultures with ampicillin at a concentration of 100 μg/mL. Cultures were grown to an O.D.600 near 1.0 at 37° C., and induced with IPTG overnight at 18° C. The cells were harvested at 7000 RPM in rotor 6000 for 5 min at 4° C. and stored at −80° C. Bacterial pellets were resuspended in 25 mM Hepes-NaOH, pH 7.5, 250 mM NaCl, and the cells were lysed in 3 cycles on/off for 3 minutes each at 4° C. via sonication. After centrifugation for 30 minutes at 16,000 RPM at 4° C., the isolated pellets were discarded, and the supernatant was filtered supernatant through a […] PES filter using 100 mL superloop. The lysate was purified over a 5 mL S column by washing the column with Lysis buffer for 5 CV then eluting using gradient from 250 mM to 1 M NaCl over 20 CV. The fractions containing FGF2 were identified via SDS-PAGE gel (Expected Mw: 15.2 KDa). The protein was collected and diluted in 20 mM Tris-HCl pH 8.0, 25 mM MgCl2 buffer in order to reach a NaCl concentration of 150 mM. The purified FGF2 was concentrated and stored at −80° C.
Thawed aliquots of purified FGF2 (1.0 mg/mL) and FGFR1 (1.6 mg/mL) proteins were mixed in a 1:1 molar ratio (64 μM: 64 μM) on ice for 30 min at 4° C. and plated prior to the thermal shift assay (TSA). Complex formation was verified by loading the complexed material on a size exclusion column (superdex 300GL S200) and observing the monodisperse peak corresponding to the FGF2/FGFR1 complex (˜40 kDa). Compounds of the invention were screened in dose response format (0-100 μM) with the FGF2/FGFR1 complex in triplicates. FGF2/FGFR1/compound complexes were mixed in a 1000:1 ratio with Sypro Orange dye (Sigma-Aldrich). The samples were processed using a Bio-Rad CFX C96 Touch quantitative polymerase chain reaction and run using the FRET assay settings with a heating ramp of 0.3° C./s cycling from 4 to 100° C. Data analysis was performed using the Bio-Rad CFX Manager Software (version 3.1, Bio-Rad) and changes in the melting temperature (Tm) of the complex in the presence of each compound were monitored. The results are shown in Tables 2 and 3 below and also in FIG. 1 (for Compound 2).

Assay [1] concerns rodent model of stroke recovery (MCAO). As to the kind of experiment: Stroke recovery in vivo after middle cerebral artery occlusion (MCAO): limb placing and body swing tests. Particulars: rat MCAO; 10 mg/kg i.v. on Day 1, 2 and 3 after MCAO; vs vehicle, p<0.001; up to Day 21. The protocol:
Compound 2 (2-(1-benzhydrylpiperidin-4-yl)-N,N-diethyl-1,2,3,4-tetrahydroisoquinolin-6-amine) was tested for its effectiveness in a rodent model of stroke recovery. Twenty male Sprague Dawley Rats (Charles River Laboratories) each weighing 300-400 g were used in this experiment. First, anesthesia was induced in an induction chamber with 2-3% isoflurane in N2O:O2 (2:1) and maintained with 1-1.5% isoflurane via face mask. Adequate depth of anesthesia was assessed by lack of withdrawal to hindlimb pinch and loss of eyeblink reflex. Once anesthetized, animals received cefazolin sodium (40 mg/kg, i.p.) and buprenorphine SR (0.9-1 mg/kg, s.c.). Cefazolin was used as a prophylactic antibiotic. A veterinary ophthalmic ointment (Sodium Chloride hypertonicity ophthalmic ointment (Muro 128 Sterile Ophthalmic 5% Ointment)) was applied to the eyes. […]
Behavioral evaluations of sensorimotor function were done by investigators blinded to treatment assignment. […] For the forelimb-placing test, the examiner held the rat close to a tabletop and scored the rat's ability to place the forelimb on the tabletop in response to whisker, visual, tactile, or proprioceptive stimulation. Similarly, for the hindlimb placing test, the examiner assessed the rat's ability to place the hindlimb on the tabletop in response to tactile and proprioceptive stimulation. […]

T1 sequence (P09038 156-288 limits assumed): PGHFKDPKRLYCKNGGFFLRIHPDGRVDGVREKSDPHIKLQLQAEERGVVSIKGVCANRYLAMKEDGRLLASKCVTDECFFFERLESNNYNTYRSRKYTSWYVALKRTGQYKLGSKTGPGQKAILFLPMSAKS
T1 sequence (P11362 142-365 partner limits assumed): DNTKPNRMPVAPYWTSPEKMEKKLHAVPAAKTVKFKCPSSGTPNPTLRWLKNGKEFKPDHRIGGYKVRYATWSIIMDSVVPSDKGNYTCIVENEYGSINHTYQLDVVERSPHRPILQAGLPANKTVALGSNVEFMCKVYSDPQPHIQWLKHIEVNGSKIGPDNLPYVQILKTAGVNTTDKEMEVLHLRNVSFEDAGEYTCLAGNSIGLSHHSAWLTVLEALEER

As a reminder, the ΔTm is the shift of the melting midpoint relative to a reference. Take `CCN(CC)c1ccc2c(c1)CCN(C1CCN(C(c3ccccc3)c3ccccc3)CC1)C2` [Compound 2, 2-(1-benzhydrylpiperidin-4-yl)-N,N-diethyl-1,2,3,4-tetrahydroisoquinolin-6-amine]: the ΔTm at 2 µM on FGF2 (2 μM compound) is -2.5 °C. For the same compound, the ΔTm at 10 µM at FGF2 (10 μM compound) is -3 °C. The “sensorimotor recovery (forelimb placing, hindlimb placing and body swing tests)” value in assay [1] is “clear and significant augmentation of sensorimotor recovery”.
